Legend:
HDAC = HDAC inhibition on whole HT-29 cells and HT-29 cell lysate; assay type: cell-based; details: HT-29, whole cells or lysate not told apart in the sentence
Method: Bacterial culture and cell-free supernatant collection Pure cultures of bacteria were grown anaerobically in YCFA broth until they reached their stationary growth phase. Cultures were centrifuged at 5,000×g for 5 minutes and the cell-free supernatant (CFS) was filtered using a 0.2 μM filter (Millipore, UK). 1 mL aliquots of the CFS were stored at −80° C. until use. Sodium butyrate, hexanoic and valeric acid were obtained from Sigma Aldrich (UK) and suspensions were prepared in YCFA broth.
To investigate which metabolites were responsible for the strain-induced HDAC inhibition, different concentrations of hexanoic acid, valeric acid and sodium butyrate were measured for their HDAC inhibition on whole HT-29 cells and on HT-29 cell lysate.

Class I HDACs = assay: Specific HDAC activity analysis, Class I HDACs overall; assay type: biochemical
Method: Specific HDAC inhibition activity was analysed for HDAC1, 2, 3, 4, 5, 6, 9 using fluorogenic assay kits for each type of HDAC (BPS Bioscience, CA). Assays were conducted according to manufacturer's instructions and each sample were performed in replicates. Cell free supernatants were diluted 1 in 10 and exposed to specific HDAC proteins provided in the kit to maintain consistency between methods.
The specific HDAC inhibition profile of the test bacteria strain was investigated. Specific HDAC inhibition assays (BPS Bioscience, CA) were carried out for Class I and Class II HDACs. The ability of the bacterial strain to inhibit HDAC enzymes was compared to butyrate, hexanoic and valeric acid (FIGS. 14 and 15).

CCCCC(=O)O [valeric acid]
total HDAC activity, pure substances (HDAC): significant HDAC inhibition
total HDAC activity, pure substances (HDAC; listed as Valeric acid): inhibited
Inhibition of Class I HDACs (Class I HDACs): class 1 HDAC inhibitor

— patent US11660319B2, “Compositions comprising bacterial strains” (priority 2017, dated 2023)
